Assay results from patent publication US8440830B2, “Tetrahydro-fused pyridines as histone deacetylase inhibitors” (4SC AG, priority 2007, dated 2013).
Read-outs that look alike come from different tables or passages of the source.

How the values were obtained:
[1] = system: A549 NSCLC cells; test: Cellular cytotoxicity assay (Alamar Blue), A549; assay type: cell-based; conditions: Homo sapiens, 72 h, upper end given as ≧100, read-out: IC50 (μM), cytotoxicity towards A549 NSCLC cells
How it was run: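 Resazurin-to-resorufin fluorescence (ex 544, em 590 nm, after 4 h) gave viability as % of untreated cells following 72 h compound exposure at 37 °C. Compounds were added in semi-logarithmic dilutions 24 h post-seeding, quadruplicate wells; IC50 fitted by non-linear regression of concentration-effect curves.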

[2] = system: histone H3 hyperacetylation in HeLa cervical carcinoma cells; test: Cellular histone H3 hyperacetylation assay; assay type: cell-based; conditions: Homo sapiens, 24 h treatment
From the text: To assess the cellular efficacy of a histone deacetylase inhibitor in vitro, an assay is set up in black clear-bottom 96-well plates and optimized for use on the Cellomics “ArrayScan II” platform for a quantitative calculation of histone acetylation. The protocol uses a polyclonal rabbit antibody, specifically binding to acetylated lysine 1-20 (including K 9 and K14) of human histone H3 on fixed cells with an Alexa Fluor 488 labeled goat anti rabbit-IgG used for counterstaining 5×10^3 HeLa cervical carcinoma cells/well (ATCC CCL-2) in 200 μl Dulbecco's modified Eagle's medium (DMEM) containing 10% fetal calf serum are seeded at day 1 in Packard view plates and incubated for 24 h under standard cell culture conditions. On day 2, 1 μl test compound (200× final concentration) is added and incubation continued for further 24 h. On day 3, the culture medium is discarded and attached cells fixed for 15 min at room temperature by addition of 100 μl fixation buffer (3.7% v:v formaldehyde in phosphate buffered saline/PBS). After discarding the fixation buffer and one wash with blocking solution (1% BSA, 0.3% Tween 20 in PBS), cells are permeabilized at room temperature by addition of 100 μl /well permeabilization buffer (30.8 mM NaCl, 0.54 mM Na2HPO4, 0.31 mM KH2PO4, 0.1% v:v Triton X-100) for 15 min at room temperature. After discarding the permeabilization buffer and washing twice with 100 μl/well blocking solution at room temperature, the 1st antibody (anti-K1-20 histone H3 antibody, Calbiochem No. 382158) in blocking solution (50 μl/well) is added. After incubation for 1 h at room temperature, the wells are washed twice at room temperature with 100 μl/well blocking solution before addition of the 2nd antibody (goat-anti-rabbit Alexa Fluor 488; MoBiTec No. A -11008) in blocking solution (50 μl well). After further incubation for 1 h at room temperature, wells are washed twice with 100 μl/well blocking solution at room temperature. Finally, 100 μl/well PBS are added and image analysis performed on the Cellomics “ArrayScan II” platform. For EC50 determination, the percentage of positive cells showing nuclear fluorescence is determined and EC50 calculation done from concentration-effect curves by means of non-linear regression. For calibration, a positive (reference HDAC inhibitors like SAHA or NVP LBH-589) and a negative control were included.

[3] = read-out: EC50, induction of histone H3 hyperacetylation
[4] = read-out: −lg EC50, induction of histone H3 hyperacetylation

| SMILES | IC50 [1] [µM] | EC50 [2, 3] [µM] | EC50 [2, 4] [µM] |
| --- | --- | --- | --- |
| Nc1ccccc1NC(=O)c1nc2c(s1)CN(C(=O)NCc1ccccc1)CC2 [Example 4, N^2-(2-aminophenyl)-N5-benzyl-6,7-dihydro[1,3]thiazolo[5,4-c]pyridine-2,5(4H)-dicarboxamide] | ≥ 0.2 | 0.15 to 15 | 0.251 to 15.8 |
| Nc1ccccc1NC(=O)c1nc2c(s1)CN(C(=O)Nc1ccc3c(c1)OCO3)CC2 [Example 7, N^2-(2-aminophenyl)-N5-1,3-benzodioxol-5-yl-6,7-dihydro[1,3]thiazolo[5,4-c]pyridine-2,5(4H)-dicarboxamide] | ≥ 0.2 | 0.15 to 15 | 0.251 to 15.8 |
| Cc1ccc(NC(=O)N2CCc3nc(C(=O)Nc4ccccc4N)sc3C2)cc1 [Example 13, N^2-(2-aminophenyl)-N^5-(4-methylphenyl)-6,7-dihydro[1,3]thiazolo[5,4-c]-pyridine-2,5(4H)-dicarboxamide] | ≥ 0.2 | 0.15 to 15 | 0.251 to 15.8 |
| Nc1ccccc1NC(=O)c1nc2c(s1)CN(C(=O)NCc1cccnc1)CC2 [Example 14, N^2-(2-aminophenyl)-N^5-(pyridin-3-ylmethyl)-6,7-dihydro[1,3]thiazolo[5,4-c]pyridine-2,5(4H)-dicarboxamide] | ≥ 0.2 | 0.15 to 15 | 0.251 to 15.8 |
| Nc1ccccc1NC(=O)c1nc2c(s1)CN(C(=O)Nc1ccncc1)CC2 [Example 15, N^2-(2-aminophenyl)-N^5-pyridin-4-yl-6,7-dihydro[1,3]thiazolo[5,4-c]pyridine-2,5(4H)-dicarboxamide] | ≥ 0.2 | 0.15 to 15 | 0.251 to 15.8 |
| COCCNC(=O)N1CCc2nc(C(=O)Nc3ccccc3N)sc2C1 [Example 16, N^2-(2-aminophenyl)-N^5-(2-methoxyethyl)-6,7-dihydro[1,3]thiazolo[5,4-c]-pyridine-2,5(4H)-dicarboxamide] | ≥ 0.2 | 0.15 to 15 | 0.251 to 15.8 |
| CN(C)c1cccc(NC(=O)N2CCc3nc(C(=O)Nc4ccccc4N)sc3C2)c1 [Example 18, N^2-(2-aminophenyl)-N^5-[3-(dimethylantino)phenyl]-6,7-dihydro[1,3]thiazolo[5,4-c]pyridine-2,5(4H)-dicarboxamide] | ≥ 0.2 | 0.15 to 15 | 0.251 to 15.8 |
| COc1ccc(NC(=O)N2CCc3nc(C(=O)Nc4ccccc4N)sc3C2)cc1OC [Example 19, N^2-(2-aminophenyl)-N^5-(3,4-dimethoxyphenyl)-6,7-dihydro[1,3]thiazolo[5,4-c]pyridine-2,5(4H)-dicarboxamide] | ≥ 0.2 | 0.15 to 15 | 0.251 to 15.8 |
| CN(C)c1ccc(NC(=O)N2CCc3nc(C(=O)Nc4ccccc4N)sc3C2)cn1 [Example 36, N^2-(2-aminophenyl)-N^5-[6-(dimethylamino)pyridin-3-yl]-6,7-dihydro[1,3]thiazolo[5,4-c]pyridine-2,5(4H)-dicarboxamide] | ≥ 0.2 | 0.15 to 15 | 0.251 to 15.8 |
| CN1CCN(c2ccc(NC(=O)N3CCc4nc(C(=O)Nc5ccccc5N)sc4C3)cn2)CC1 [Example 37, N^2-(2-aminophenyl)-N^5-[6-(4-methylpiperazin-1-yl)pyridin-3-yl]-6,7-dihydro[1,3]thiazolo[5,4-c]pyridine-2,5(4H)-dicarboxamide] | ≥ 0.2 | 0.15 to 15 | 0.251 to 15.8 |
| Nc1ccccc1NC(=O)c1nc2c(s1)CN(C(=O)Nc1cccnc1)CC2 [Example 39, N^2-(2-aminophenyl)-N^5-pyridin-3-yl-6,7-dihydro[1,3]thiazolo[5,4-c]pyridine-2,5(4H)-dicarboxamide] | ≥ 0.2 | 0.15 to 15 | 0.251 to 15.8 |
| CC(=O)N1CCc2nc(C(=O)Nc3ccccc3N)sc2C1 [Example 92, 5-acetyl-N-(2-aminophenyl)-4,5,6,7-tetrahydro[1,3]thiazolo[5,4-c]pyridine-2-carboxamide] | ≥ 0.2 | 0.15 to 15 | 0.251 to 15.8 |
| Cc1ccc(C(=O)N2CCc3nc(C(=O)Nc4ccccc4N)sc3C2)cn1 [Example 96, N-(2-aminophenyl)-5-[(6-methylpyridin-3-yl)carbonyl]-4,5,6,7-tetrahydro-[1,3]thiazolo[5,4-c]pyridine-2-carboxamide] | ≥ 0.2 | 0.15 to 15 | 0.251 to 15.8 |
| N#CN=C(Nc1ccccc1)N1CCc2nc(C(=O)Nc3ccccc3N)sc2C1 [Example 116, N-(2-aminophenyl)-5-[anilino(cyanoimino)methyl]-4,5,6,7-tetrahydro[1,3]thiazolo[5,4-c]pyridine-2-carboxamide] | ≥ 0.2 | 0.15 to 15 | 0.251 to 15.8 |
| COc1ccc(NC(=NC#N)N2CCc3nc(C(=O)Nc4ccccc4N)sc3C2)cc1 [Example 117, N-(2-aminophenyl)-5-{(cyanoimino)[(4-methoxyphenyl)amino]methyl}-4,5,6,7-tetrahydro[1,3]thiazolo[5,4-c]pyridine-2-carboxamide] | ≥ 0.2 | 0.15 to 15 | 0.251 to 15.8 |
| COc1ccc(NC(=NC#N)N2CCc3nc(C(=O)Nc4ccccc4N)sc3C2)cc1OC [Example 118, N-(2-aminophenyl)-5-{(cyanoimino)[(3,4-dimethoxyphenyl)amino]methyl}-4,5,6,7-tetrahydro[1,3]thiazolo[5,4-c]pyridine-2-carboxamide] | ≥ 0.2 | 0.15 to 15 | 0.251 to 15.8 |
| N#CN=C(NCc1ccccc1)N1CCc2nc(C(=O)Nc3ccccc3N)sc2C1 [Example 122, N-(2-aminophenyl)-5-[(benzylamino)(cyanoimino)methyl]-4,5,6,7-tetrahydro[1,3]thiazolo[5,4-c]pyridine-2-carboxamide] | ≥ 0.2 | 0.15 to 15 | 0.251 to 15.8 |
| Nc1ccccc1NC(=O)c1nc2c(s1)CN(S(=O)(=O)c1ccc(-c3ccccc3)cc1)CC2 [Example 152, N-(2-aminophenyl)-5-(biphenyl-4-ylsulfonyl)-4,5,6,7-tetrahydro[1,3]thiazolo[5,4-c]pyridine-2-carboxamide] | ≥ 0.2 | 0.15 to 15 | 0.251 to 15.8 |
| CS(=O)(=O)N1CCc2nc(C(=O)Nc3ccccc3N)sc2C1 [Example 154, N-(2-aminophenyl)-5-(methylsulfonyl)-4,5,6,7-tetrahydro[1,3]thiazolo[5,4-c]pyridine-2-carboxamide] | ≥ 0.2 | 0.15 to 15 | 0.251 to 15.8 |
| COc1cccc(S(=O)(=O)N2CCc3nc(C(=O)Nc4ccccc4N)sc3C2)c1 [Example 160, N-(2-aminophenyl)-5-[(3-methoxyphenyl)sulfonyl]-4,5,6,7-tetrahydro[1,3]thiazolo[5,4-c]pyridine-2-carboxamide] | ≥ 0.2 | 0.15 to 15 | 0.251 to 15.8 |
| Cc1ccc(OCC(=O)N2CCc3nc(C(=O)Nc4ccccc4N)sc3C2)cc1 [Example 173, N-(2-aminophenyl)-5-[(4-methylphenoxy)acetyl]-4,5,6,7-tetrahydro[1,3]thiazolo[5,4-c]pyridine-2-carboxamide] | ≥ 0.2 | 0.15 to 15 | 0.251 to 15.8 |
| COc1ccc(OCC(=O)N2CCc3nc(C(=O)Nc4ccccc4N)sc3C2)cc1 [Example 174, N-(2-aminophenyl)-5-[(4-methoxyphenoxy)acetyl]-4,5,6,7-tetrahydro[1,3]-thiazolo[5,4-c]pyridine-2-carboxamide] | ≥ 0.2 | 0.15 to 15 | 0.251 to 15.8 |
